# From patent US11986477B2, “Drug combination and use for treating tumors” (INXMED (NANJING) CO., LTD., priority 2022, dated 2024)
# Values joined by “and” are separate entries in the source; they are usually repeats but may differ in a detail not shown here. Equal values may be shown once.
# Columns and labels:
# [1] = Body weight and survival of HCC827 tumor-bearing BALB/c-nude mice during dosing; format: in vivo
# Description: The use and welfare of laboratory animals were in accordance with the AAALAC regulations. Animals were monitored daily for health and death. Routine examinations included observation of tumor growth and the effects of drug treatment on the animals' daily behavior such as behavioral activities, food and water intake (visual inspection only), weight changes, appearance signs or other abnormalities. Animal deaths and side effects in each group were recorded based on the number of animals in each group.
# The assay was carried out according to the dosing regimen, during which the animals were observed daily for feeding and drinking, and their body weights were recorded three times a week.
# [2] = system: mouse colon cancer CT-26 cells; assay: In vivo antitumor efficacy, subcutaneous allograft tumor model of colon cancer CT-26 cells in BALB/c mice; conditions: for Tumor volume on day 0: baseline at grouping, mean ± standard error, n=6; for TGI: day 15, vs control group; for TGI / Tumor volume on day 15: IN10018 25 mg/kg, combination 20+25 mg/kg, p.o. QD; for Tumor volume on day 15: day 15 after administration by groups
# Description: (§1) 500 CO2 incubator. The cells were passaged by routine digestion with trypsin-EDTA two to three times a week. When the cells were in the exponential growth phase with 80%-0% saturation, the cells were harvested, counted and inoculated.
# 0.1 mL of a cell suspension containing 3×10^5 cells was inoculated subcutaneously into the right back of each mouse. When the tumor volume reached ˜59 mm^3 (on day 12 after cell inoculation), the mice were randomized into groups for administration according to the tumor volume, and the grouping information is shown in Table 2.
# The tumor diameter was measured with a vernier caliper three times a week. The tumor volume was calculated by the formula: V=0.5×a×b^2, where a and b indicated the long and short diameter of the tumor, respectively.
# Statistical analysis was performed based on tumor volume and tumor weight at the end of the trial using Prism Graphpad software. Comparisons among multiple groups were analyzed using Two-way ANOVA, Fisher's LSD test method. P<0.05 was considered a significant difference.
# [3] = system: human non-small cell lung cancer HCC827 cells; assay: In vivo antitumor efficacy, BALB/c-nude mouse subcutaneous xenograft tumor model of HCC827 cells; conditions: for tumor growth inhibition compared with the blank control group / TGI / Tumor volume on day 32 / Tumor volume on day 37: AZD9291 3 mg/kg, IN10018 25 mg/kg, combination 3+25 mg/kg; for tumor growth inhibition compared with the blank control group: statistical difference from control; for Tumor volume on day 0: baseline at grouping, n=5; for Tumor volume on day 0 / Tumor volume on day 32 / Tumor volume on day 37: mean ± SD; for TGI: day 32, vs control group; for TGI / Tumor volume on day 32 / Tumor volume on day 37: PO QD; for Tumor volume on day 32: day 32 after administration by groups; for Tumor volume on day 37: day 37 after administration by groups
# Description: as §1, with “5%” for “500”, “80%-90%” for “80%-0%”, “inoculated. 0.1 mL of a cell suspension containing 5×10^6 cells was inoculated subcutaneously into the right back of each mouse.” for “inoculated.”
# The experiment criteria was to investigate whether the tumor growth was inhibited, delayed or cured. Tumor diameter was measured three times a week using vernier calipers. Tumor volume was calculated according to the following formula: V=0.5×a×b^2, where a and b indicated the long diameter and short diameter of the tumor, respectively.
# The tumor suppressive efficacy of the compounds was evaluated by TGI (%), which reflects the tumor growth inhibition rate.
# Statistical analysis was performed based on tumor volume at the end of the trial using Prism Graphpad software. Comparisons among multiple groups were analyzed using Two-way ANOVA, Fisher's LSD test method, and P<0.05 was considered a significant difference. Comparisons between the two groups were analyzed using the t-test, Mann Whitney test method test, and P<0.05 was considered a significant difference.
# [4] = system: lung cancer KPL cells; assay: Lung cancer KPL cells incubated with drug for 48 hours, observed under microscope; format: cell-based; conditions: 48 h incubation; IN10018 10 μM, AZD9291 10 μM, Almonertinib 4.7 μM, Alflutinib 4.7 μM, single or combined
smiles,measurement,setting,value
"C=CC(=O)Nc1cc(Nc2nccc(-c3cn(C)c4ccccc34)n2)c(OC)cc1N(C)CCN(C)C [AZD9291, Osimertinib]",Body weight on day 0,"[1]; baseline, day of administration by groups, mean ± SD",19.9 g and 19.9 ± 0.9 g
same,Body weight on day 37,"[1]; day 37, AZD9291 3 mg/kg, IN10018 25 mg/kg, combination 3+25 mg/kg PO QD, mean ± SD",19.4 g and 19.4 ± 1.4 g
same,Rate of change in body weight,"[1]; day 37 vs day 0, AZD9291 3 mg/kg, IN10018 25 mg/kg, combination 3+25 mg/kg",−2.2%
same,Animal Survival,"[1]; number of animals surviving on day 0/after administration, AZD9291 3 mg/kg, IN10018 25 mg/kg, combination 3+25 mg/kg",5/5
same,tumor growth inhibition compared with the blank control group,"[2]; AZD9291 20 mg/kg, AZD9291+IN10018 20+25 mg/kg, statistical difference from control",obvious tumor growth inhibition
same,Tumor volume on day 0,[2],37.9 ± 12.9 mm^3
same,TGI,[2]; AZD9291 20 mg/kg,33.2%
same,Tumor volume on day 15,[2]; AZD9291 20 mg/kg,1046.3±407.8 mm^3
same,tumor growth inhibition compared with the blank control group,[3],obvious tumor growth inhibition
same,Tumor volume on day 0,[3],148.6 ± 59.6 mm^3
same,TGI,[3],107.7%
same,Tumor volume on day 32,[3],20.3±4.7 mm^3
same,Tumor volume on day 37,[3],17.0±6.7 mm^3
same,cell status observed under microscope,[4],poor cell status
C=CC(=O)Nc1cc(Nc2nccc(-c3cn(C)c4ccccc34)n2)c(OCC(F)(F)F)nc1N(C)CCN(C)C [Alflutinib],cell status observed under microscope,[4],poor cell status
C=CC(=O)Nc1cc(Nc2nccc(-c3cn(C4CC4)c4ccccc34)n2)c(OC)cc1N(C)CCN(C)C [Almonertinib],cell status observed under microscope,[4],poor cell status
COc1cc(C(=O)NC2CCN(C)CC2)c(F)cc1Nc1ncc(C(F)(F)F)c(Oc2cccc3c2C(=O)N(C)C3)n1 [IN10018],Tumor volume on day 0,[2],39.2 ± 17.9 mm^3
same,TGI,[2]; AZD9291 20 mg/kg,−14.5%
same,Tumor volume on day 15,[2]; AZD9291 20 mg/kg,1766.9±732.5 mm^3
same,tumor growth inhibition compared with the blank control group,[3],obvious tumor growth inhibition
same,Tumor volume on day 0,[3],147.7 ± 56.3 mm^3
same,TGI,[3],104.1%
same,Tumor volume on day 32,[3],79.2±51.8 mm^3
same,Tumor volume on day 37,[3],69.6±46.6 mm^3
same,cell status observed under microscope,[4],better cell status
